Test results reported in PMC11461180, “Interaction with IP6K1 supports pyrophosphorylation of substrate proteins by the inositol pyrophosphate 5-InsP7” (Bioscience Reports, 2024).

What was measured:
[1] = molecular target: T1, AP3B1 (myc-tagged) (Homo sapiens, UniProt O00203); experiment: pyrophosphorylation of immunoprecipitated protein, phosphorimager; format: biochemical; conditions: labelled compound; β-phosphate donor, covalent transfer to pSer of the protein, enzyme-independent; 6 mM MgCl2, pH 7.4, 37 °C, 15 min
T1 construct: full-length, N-terminal myc tag, expressed in HEK293T cells, immunoprecipitated on protein G-sepharose beads
T1 sequence (O00203 1-1094): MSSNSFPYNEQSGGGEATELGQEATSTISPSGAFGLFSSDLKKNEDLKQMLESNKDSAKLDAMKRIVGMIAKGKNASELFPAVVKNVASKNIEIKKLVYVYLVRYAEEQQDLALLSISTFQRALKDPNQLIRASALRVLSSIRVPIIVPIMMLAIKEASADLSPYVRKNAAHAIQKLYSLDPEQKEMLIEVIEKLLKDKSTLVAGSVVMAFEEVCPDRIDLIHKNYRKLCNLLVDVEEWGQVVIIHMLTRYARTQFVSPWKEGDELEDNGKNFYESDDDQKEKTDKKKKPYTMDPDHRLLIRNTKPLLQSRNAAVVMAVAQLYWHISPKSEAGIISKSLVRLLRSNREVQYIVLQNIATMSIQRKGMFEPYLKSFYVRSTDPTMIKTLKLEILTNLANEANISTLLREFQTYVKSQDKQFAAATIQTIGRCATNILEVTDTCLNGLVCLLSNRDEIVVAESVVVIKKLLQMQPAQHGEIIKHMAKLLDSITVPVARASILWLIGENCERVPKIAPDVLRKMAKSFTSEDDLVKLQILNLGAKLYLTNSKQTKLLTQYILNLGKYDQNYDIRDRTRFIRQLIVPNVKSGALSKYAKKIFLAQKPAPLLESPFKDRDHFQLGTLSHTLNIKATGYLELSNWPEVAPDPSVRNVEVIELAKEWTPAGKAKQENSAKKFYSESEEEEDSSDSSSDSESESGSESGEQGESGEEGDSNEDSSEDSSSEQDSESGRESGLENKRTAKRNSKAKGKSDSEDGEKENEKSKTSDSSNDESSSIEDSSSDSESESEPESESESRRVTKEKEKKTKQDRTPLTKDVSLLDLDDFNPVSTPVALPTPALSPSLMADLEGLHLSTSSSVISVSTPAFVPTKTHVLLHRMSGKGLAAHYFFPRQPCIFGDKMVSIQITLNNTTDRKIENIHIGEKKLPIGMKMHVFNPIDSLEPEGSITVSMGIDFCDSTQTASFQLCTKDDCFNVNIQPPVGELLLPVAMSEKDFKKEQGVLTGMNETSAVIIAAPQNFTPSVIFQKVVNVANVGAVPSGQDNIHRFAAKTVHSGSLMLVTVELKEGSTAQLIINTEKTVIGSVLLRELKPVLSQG

[2] = molecular target: T2, Casein Kinase II (CK2 holoenzyme) (Homo sapiens, UniProt P68400); experiment: [γ-32P]ATP phosphorylation of immunoprecipitated myc-AP3B1, autoradiography; format: biochemical; conditions: 15 µM TBCA preincubated 30 min on ice; 500 µM Mg-ATP; enzyme form (holoenzyme or GST-CK2α) not told for the TBCA lanes
T2 construct: gene CSNK2A1; commercial recombinant holoenzyme, heterotetramer; with Casein kinase II subunit beta
T2 sequence (P68400 whole entry): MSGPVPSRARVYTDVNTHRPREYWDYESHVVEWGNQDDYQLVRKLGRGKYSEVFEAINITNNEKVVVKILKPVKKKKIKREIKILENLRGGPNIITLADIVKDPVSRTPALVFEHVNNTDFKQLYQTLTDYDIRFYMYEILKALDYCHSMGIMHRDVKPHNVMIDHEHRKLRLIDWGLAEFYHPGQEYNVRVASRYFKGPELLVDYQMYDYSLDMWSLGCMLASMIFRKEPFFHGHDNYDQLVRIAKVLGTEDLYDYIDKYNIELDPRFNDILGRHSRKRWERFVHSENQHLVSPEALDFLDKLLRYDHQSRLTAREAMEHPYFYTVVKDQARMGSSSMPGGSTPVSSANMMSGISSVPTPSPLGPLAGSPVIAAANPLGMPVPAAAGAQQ
T2 sequence (P67870 2-215 partner): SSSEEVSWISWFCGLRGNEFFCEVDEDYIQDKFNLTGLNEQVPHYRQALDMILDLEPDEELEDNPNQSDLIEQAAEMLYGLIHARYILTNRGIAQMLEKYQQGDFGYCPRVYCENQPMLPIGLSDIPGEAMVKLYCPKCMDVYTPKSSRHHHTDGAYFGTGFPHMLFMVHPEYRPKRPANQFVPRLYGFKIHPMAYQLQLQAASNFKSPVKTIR

SMILES | pyrophosphorylation of immunoprecipitated protein, phosphorimager [1] | phosphorylation lowered at 15 μM [2]
O=P(O)(O)O[C@H]1[C@@H](OP(=O)(O)O)[C@H](OP(=O)(O)O)[C@@H](OP(=O)(O)OP(=O)(O)O)[C@H](OP(=O)(O)O)[C@H]1OP(=O)(O)O [5-InsP7] | AP3B1 over-expressed under these two conditions was immunoprecipitated and incubated with radiolabeled 5-InsP7 | –
O=C(O)/C=C/c1cc(Br)c(Br)c(Br)c1Br [TBCA] | – | which was lowered when the CK2 inhibitor TBCA was added to the reaction
